biological target: T1, pY705-STAT3 in PBMC (Homo sapiens, UniProt P40763); assay: MSD-pSTAT-PBMC Assay (pSTAT3, IL-6 stimulated); assay type: cell-based; details: PBMC, compound 3 hrs, then 10 ng/mL IL-6 for 10 min; Table 115; read-out: STAT3
T1 construct: Cryopreserved Peripheral Blood Mononuclear Cells (PBMC) are from AllCells; host or cells: cryopreserved PBMC
Outline: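 MSD electrochemiluminescence read-out: total STAT captured, probed with anti-pY641-STAT6 or anti-pY705-STAT3. Human PBMC, 3 h compound pretreatment, 10 min stimulation (IL-4 1 ng/mL or IL-6 10 ng/mL). Unstimulated signal subtracted, DMSO-normalized, variable-slope IC50.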

T1 sequence (P40763 whole entry): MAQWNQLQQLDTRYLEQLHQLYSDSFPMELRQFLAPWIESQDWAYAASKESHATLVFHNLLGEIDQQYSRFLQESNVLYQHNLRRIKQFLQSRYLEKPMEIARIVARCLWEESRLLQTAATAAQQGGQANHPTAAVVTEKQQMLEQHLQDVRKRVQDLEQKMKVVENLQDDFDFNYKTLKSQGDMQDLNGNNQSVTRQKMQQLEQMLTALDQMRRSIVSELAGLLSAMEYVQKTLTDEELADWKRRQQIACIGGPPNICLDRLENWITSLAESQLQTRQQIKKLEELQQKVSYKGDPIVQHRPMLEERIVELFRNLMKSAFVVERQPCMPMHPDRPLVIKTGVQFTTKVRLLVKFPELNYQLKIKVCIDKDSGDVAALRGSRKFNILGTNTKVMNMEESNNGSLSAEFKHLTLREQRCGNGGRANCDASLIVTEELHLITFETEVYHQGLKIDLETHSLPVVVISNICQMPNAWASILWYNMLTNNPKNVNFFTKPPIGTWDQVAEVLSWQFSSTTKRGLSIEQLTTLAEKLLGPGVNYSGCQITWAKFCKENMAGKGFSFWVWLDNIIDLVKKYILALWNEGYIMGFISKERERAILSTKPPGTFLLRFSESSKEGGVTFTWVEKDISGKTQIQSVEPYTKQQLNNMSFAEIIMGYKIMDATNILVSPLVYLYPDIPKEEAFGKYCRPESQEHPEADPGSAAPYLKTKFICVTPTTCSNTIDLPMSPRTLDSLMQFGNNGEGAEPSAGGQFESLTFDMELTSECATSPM

SMILES | IC50 [nM]
CCCOC(=O)[C@H](C)NP(=O)(Cc1ccc2sc(C(=O)N[C@H]3CCC[C@H]4CC[C@@H](C(=O)N5CC(c6cccnc6C(F)F)C5)N4C3=O)cc2c1)Oc1ccccc1 (stereo partly drawn) [Compound 272, propyl (((2-(((3S,6S,9aS)-3-(3-(2-(difluoromethyl)pyridin-3-yl)azetidine-1-carbonyl)-5-oxooctahydro-1H-pyrrolo[1,2-a]azepin-6-yl)carbamoyl)benzo [b]thiophen-5-yl)methyl)(phenoxy)phosphoryl)-L-alaninate] | < 100
CCCOC(=O)[C@H](C)NP(=O)(Oc1ccccc1)C(F)c1ccc2sc(C(=O)N[C@H]3CCC[C@H]4CC[C@@H](C(=O)N5CC(c6cnccc6C#N)C5)N4C3=O)cc2c1 (stereo partly drawn) [Compound 273, propyl (((2-(((3S,6S,9aS)-3-(3-(4-cyanopyridin-3-yl)azetidine-1-carbonyl)-5-oxooctahydro-1H-pyrrolo[1,2-a]azepin-6-yl)carbamoyl)benzo [b]thiophen-5-yl)fluoromethyl) (phenoxy)phosphoryl)-L-alaninate] | 100 to 1000
CCCOC(=O)[C@H](C)NP(=O)(Cc1ccc2sc(C(=O)N[C@H]3CCCC[C@H]4CC[C@@H](C(=O)N5CC(c6cnccc6F)C5)N4C3=O)cc2c1)Oc1ccccc1 (stereo partly drawn) [Compound 274, propyl (((2-(((3S,6S,10aS)-3-(3-(4-fluoropyridin-3-yl)azetidine-1-carbonyl)-5-oxodecahydropyrrolo [1,2-a]azocin-6-yl)carbamoyl)benzo [b]thiophen-5-yl)methyl)(phenoxy)phosphoryl)-L-alaninate] | < 100
CCCOC(=O)[C@H](C)NP(=O)(Cc1ccc2sc(C(=O)N[C@H]3CCC[C@H]4CC[C@@H](C(=O)N5CC(c6c(F)ccnc6OC)C5)N4C3=O)cc2c1)Oc1ccccc1 (stereo partly drawn) [Compound 275, propyl (((2-(((3S,6S,9aS)-3-(3-(4-fluoro-2-methoxypyridin-3-yl)azetidine-1-carbonyl)-5-oxooctahydro-1H-pyrrolo[1,2-a]azepin-6-yl)carbamoyl)benzo [b]thiophen-5-yl)methyl)(phenoxy)phosphoryl)-L-alaninate] | > 3000
CC[C@H](C)OC(=O)[C@H](C)NP(=O)(Cc1ccc2sc(C(=O)N[C@H]3CCC[C@H]4CC[C@@H](C(=O)N5CC(c6cccnc6)C5)N4C3=O)cc2c1)Oc1ccccc1 (stereo partly drawn) [Compound 276, (S)-sec-butyl (((2-(((3S,6S,9aS)-5-oxo-3-(3-(pyridin-3-yl)azetidine-1-carbonyl)octahydro-1H-pyrrolo[1,2-a]azepin-6-yl)carbamoyl)benzo [b]thiophen-5-yl)methyl)(phenoxy)phosphoryl)-L-alaninate] | 100 to 1000
CC(C)COC(=O)[C@H](C)NP(=O)(Oc1ccccc1)C(F)c1ccc2sc(C(=O)N[C@H]3CCC[C@H]4CC[C@@H](C(=O)N5CC(c6cnccc6F)C5)N4C3=O)cc2c1 (stereo partly drawn) [Compound 277, isobutyl ((fluoro(2-(((3S,6S,9aS)-3-(3-(4-fluoropyridin-3-yl)azetidine-1-carbonyl)-5-oxooctahydro-1H-pyrrolo[1,2-a]azepin-6-yl)carbamoyl)benzo [b]thiophen-5-yl)methyl)(phenoxy)phosphoryl)-L-alaninate] | < 100
CCCOC(=O)[C@H](C)NP(=O)(Cc1ccc2sc(C(=O)N[C@H]3CCC[C@H]4CC[C@@H](C(=O)N5CC(c6cnc(F)cc6OC)C5)N4C3=O)cc2c1)Oc1ccccc1 (stereo partly drawn) [Compound 278, propyl (((2-(((3S,6S,9aS)-3-(3-(6-fluoro-4-methoxypyridin-3-yl)azetidine-1-carbonyl)-5-oxooctahydro-1H-pyrrolo[1,2-a]azepin-6-yl)carbamoyl)benzo [b]thiophen-5-yl)methyl)(phenoxy)phosphoryl)-L-alaninate] | 100 to 1000
CCCCOC(=O)[C@H](C)NP(=O)(Cc1ccc2sc(C(=O)N[C@H]3CCC[C@H]4CC[C@@H](C(=O)N5CC(c6cccnc6)C5)N4C3=O)cc2c1)Oc1ccccc1 (stereo partly drawn) [Compound 279, butyl (((2-(((3S,6S,9aS)-5-oxo-3-(3-(pyridin-3-yl)azetidine-1-carbonyl)octahydro-1H-pyrrolo[1,2-a]azepin-6-yl)carbamoyl)benzo [b]thiophen-5-yl)methyl)(phenoxy)phosphoryl)-L-alaninate] | < 100
COC1(c2cccnc2)CN(C(=O)[C@@H]2CC[C@@H]3CCCC[C@H](NC(=O)c4cc5cc(CP(=O)(N[C@@H](C)C(=O)OCC(C)C)Oc6ccccc6)ccc5s4)C(=O)N32)C1 (stereo partly drawn) [Compound 281, isobutyl (((2-(((3S,6S,10aS)-3-(3-methoxy-3-(pyridin-3-yl)azetidine-1-carbonyl)-5-oxodecahydropyrrolo [1,2-a]azocin-6-yl)carbamoyl)benzo [b]thiophen-5-yl)methyl)(phenoxy)phosphoryl)-L-alaninate] | < 100
Cc1ccncc1C1CN(C(=O)[C@@H]2CC[C@@H]3CCCC[C@H](NC(=O)c4cc5cc(CP(=O)(N[C@@H](C)C(=O)OCC(C)C)Oc6ccccc6)ccc5s4)C(=O)N32)C1 (stereo partly drawn) [Compound 282, isobutyl (((2-(((3S,6S,10aS)-3-(3-(4-methylpyridin-3-yl)azetidine-1-carbonyl)-5-oxodecahydropyrrolo [1,2-a]azocin-6-yl)carbamoyl)benzo [b]thiophen-5-yl)methyl)(phenoxy)phosphoryl)-L-alaninate] | < 100
CCCOC(=O)[C@H](C)NP(=O)(Cc1ccc2sc(C(=O)N[C@H]3C[C@H](C)C[C@H]4CC[C@@H](C(=O)N5CC(c6cnccc6C)C5)N4C3=O)cc2c1)Oc1ccccc1 (stereo partly drawn) [Compound 283, propyl (((2-(((3S,6S,8S,9aR)-8-methyl-3-(3-(4-methylpyridin-3-yl)azetidine-1-carbonyl)-5-oxooctahydro-1H-pyrrolo[1,2-a]azepin-6-yl)carbamoyl)benzo [b]thiophen-5-yl)methyl)(phenoxy)phosphoryl)-L-alaninate] | < 100
CCCCOC(=O)[C@H](C)N(C)P(=O)(Oc1ccccc1)C(F)(F)c1ccc2sc(C(=O)N[C@H]3CCC[C@H]4CC[C@@H](C(=O)N5CC(c6cccnc6)C5)N4C3=O)cc2c1 (stereo partly drawn) [Compound 285, butyl N-((difluoro(2-(((3S,6S,9aS)-5-oxo-3-(3-(pyridin-3-yl)azetidine-1-carbonyl)octahydro-1H-pyrrolo[1,2-a]azepin-6-yl)carbamoyl)benzo [b]thiophen-5-yl)methyl)(phenoxy)phosphoryl)-N-methyl-L-alaninate] | > 3000
CCCOC(=O)[C@H](C)NP(=O)(Cc1ccc2sc(C(=O)N[C@H]3CC[C@H](C)C[C@H]4CC[C@@H](C(=O)N5CC(c6cnccc6C)C5)N4C3=O)cc2c1)Oc1ccccc1 (stereo partly drawn) [Compound 286, propyl (((2-(((3S,6S,9S,10aR)-9-methyl-3-(3-(4-methylpyridin-3-yl)azetidine-1-carbonyl)-5-oxodecahydropyrrolo [1,2-a]azocin-6-yl)carbamoyl)benzo [b]thiophen-5-yl)methyl)(phenoxy)phosphoryl)-L-alaninate] | < 100
CCCOC(=O)[C@H](C)NP(=O)(Cc1ccc2sc(C(=O)N[C@H]3CC[C@@H](C)C[C@H]4CC[C@@H](C(=O)N5CC(c6cnccc6C)C5)N4C3=O)cc2c1)Oc1ccccc1 (stereo partly drawn) [Compound 287, propyl (((2-(((3S,6S,9R,10aR)-9-methyl-3-(3-(4-methylpyridin-3-yl)azetidine-1-carbonyl)-5-oxodecahydropyrrolo [1,2-a]azocin-6-yl)carbamoyl)benzo [b]thiophen-5-yl)methyl)(phenoxy)phosphoryl)-L-alaninate] | < 100
